Literature values, collected in patent US20090318550A1, “Emulsions comprising at least one retinoid and benzoyl peroxide” (GALDERMA RESEARCH & DEVELOPMENT, priority 2006, published 2009).
Read-outs that look alike come from different tables or passages of the source.

Legend:
[1] = for Decomposition time: 40° C.
[2] = in presence of benzoyl peroxide formulation

## O=C(OOC(=O)c1ccccc1)c1ccccc1 [benzoyl peroxide]
[1]; in solution in PEG 400 (0.5 mg/g)
  Decomposition time: 1.4 days
[1]; in solution in ethanol
  Decomposition time: 29 days
[1]; in solution in propylene glycol
  Decomposition time: 53 days
[1]; in water and propylene glycol, storing for 90 days
  Decomposition in suspension (dispersed form): not decomposed

## COc1ccc(-c2ccc3cc(C(=O)O)ccc3c2)cc1C12CC3CC(CC(C3)C1)C2 [adapalene, 6-(3-(1-adamantyl)-4-methoxyphenyl)-2-naphthoic acid]
[2]; during 24 hours
  Decomposition of the retinoid: no decomposition

## CC1=C(/C=C/C(C)=C/C=C/C(C)=C/C(=O)O)C(C)(C)CCC1 [tretinoin]
[2]; 2 hours
  Decomposition of the retinoid: 50%
[2]; 4 hours
  Decomposition of the retinoid: 95%
